In publication PMC4841036, “Synthesis and antimicrobial evaluation of two peptide LyeTx I derivatives modified with the chelating agent HYNIC for radiolabeling with technetium-99m” (The Journal of Venomous Animals and Toxins Including …, 2016):
Where no end group is shown, it is not given here.

Assays:
S. aureus (ATCC® 6538) = assay: Microdilution test, MIC in TSB; type: cell-based, Staphylococcus aureus; details: microdilution (CLSI) in TSB, 37 °C for 24 h, MIC = reduction of 100 % in bacterial growth, median (n = 3), each in duplicate, NI = no inhibition
Procedure: (§1) The maintenance of the antimicrobial activity after peptide LyeTx I modifications with HYNIC was evaluated by microdilution test, according to the Clinical and Laboratory Standards Institute. Bacterial strains of reference, S. aureus (ATCC® 6538) and E. coli (ATCC® 10536), were grown on tryptic soy agar at 37 °C for 18 h. Then, 0.5 McFarland scale bacterial suspensions (10^8 CFU^.mL^−1) were prepared on tryptic soy broth (TSB). The readouts were carried by determination of minimum inhibitory concentration (MIC), defined as a reduction of 100 % in bacterial growth post-incubation with the peptide LyeTx I derivatives at 37 °C for 24 h. LyeTx I obtained by chemical synthesis and without the coupled chelating agent was used as treatment control. Only TSB (no bacterial suspension and no peptide) was used as negative control. TSB plus bacterial suspension (no peptide) were used as positive control. MIC was expressed as median (n = 3). Each replicate was performed with a different bacterial colony, in duplicate.

E. coli (ATCC® 10536) = assay: Microdilution test, MIC in TSB; type: cell-based, Escherichia coli; details: microdilution (CLSI) in TSB, 37 °C for 24 h, MIC = reduction of 100 % in bacterial growth, median (n = 3), each in duplicate, NI = no inhibition
Procedure: as §1

S. aureus = details: different assay conditions and other bacterial strains; cited from earlier work
Source text: (§2) However, different assay conditions and other bacterial strains were employed, which can explain the slight differences in the MIC obtained in this study. […] On the other hand, the peptide HYNIC-LyeTx I derivative (N- ...

E. coli = details: different assay conditions and other bacterial strains; cited from earlier work
Source text: as §2

In the case of IWLTALKFLGKNLGKHLAKQQLAKL-NH2 [LyeTx I], the “Minimum inhibitory concentration (MIC)” value (S. aureus (ATCC® 6538)) is listed as 5.52 μmol^.L^−1, the “Minimum inhibitory concentration (MIC)” value (E. coli (ATCC® 10536)) is listed as 5.52 μmol^.L^−1 and the MIC (S. aureus) is listed as 3.79 μmol^.L^−1. For the same substance, the MIC (E. coli) was 7.81 μmol^.L^−1.
